Assays:
Type in all cases: in vivo
Lolium perenne (LOLPE) [1] = test: Post-emergence herbicidal activity; settings: post-emergence application, 1000 g/Ha, evaluated after 13 days, scale 0-5; Table 7
Experimental: (§1) B2 Post-Emergence Herbicidal Activity
(§2) Seeds of a variety of test species were sown in standard soil in pots: Triticum aestivium (TRZAW), Oryza sativa (ORYSA), Avena fatua (AVEFA), Alopecurus myosuroides (ALOMY), Echinochloa crus-galli (ECHCG), Lolium perenne (LOLPE), Zea Mays (ZEAMX), Abutilon theophrasti (ABUTH), Amaranthus retroflexus (AMARE) and Setaria faberi (SETFA). After 8 days cultivation (post-emergence) under controlled conditions in a glasshouse (at 24/16° C., day/night; 14 hours light; 65% humidity), the plants were sprayed with an aqueous spray solution derived from the formulation of the technical active ingredient in acetone/water (50:50) solution containing 0.5% Tween 20 (polyoxyethelyene sorbitan monolaurate, CAS RN 9005-64-5). The test plants were then grown in a glasshouse under controlled conditions (at 24/16° C., day/night; 14 hours light; 65% humidity) and watered twice daily. After 13 days, the test was evaluated (5=total damage to plant; 0=no damage to plant).

[2] = tested on: Echinochloa crus-galli (ECHCG); test: Post-emergence herbicidal activity; settings: post-emergence application, 1000 g/Ha, evaluated after 13 days, scale 0-5; Table 7
Experimental: as §1, §2

[3] = tested on: Alopecurus myosuroides (ALOMY); test: Post-emergence herbicidal activity; settings: post-emergence application, 1000 g/Ha, evaluated after 13 days, scale 0-5
Experimental: as §1, §2

[4] = tested on: Triticum aestivium (TRZAW); test: Post-emergence herbicidal activity; settings: post-emergence application, 1000 g/Ha, evaluated after 13 days, scale 0-5
Experimental: as §1, §2

Oryza sativa (ORYSA) [5] = test: Post-emergence herbicidal activity; settings: post-emergence application, 1000 g/Ha, evaluated after 13 days, scale 0-5
Experimental: as §1, §2

Avena fatua (AVEFA) [6] = test: Post-emergence herbicidal activity; settings: post-emergence application, 1000 g/Ha, evaluated after 13 days, scale 0-5
Experimental: as §1, §2

Lolium perenne (LOLPE) [7] = test: Pre-emergence herbicidal activity; settings: pre-emergence application, 1000 g/Ha, evaluated after 13 days, scale 0-5; Table 5
Experimental: (§3) B1 Pre-Emergence Herbicidal Activity
as §2, with “After” for “After 8 days”, “for one day (pre-emergence)” for “(post-emergence)”

[8] = tested on: Echinochloa crus-galli (ECHCG); test: Pre-emergence herbicidal activity; settings: pre-emergence application, 1000 g/Ha, evaluated after 13 days, scale 0-5; Table 5
Experimental: as §3
as §2, with “After” for “After 8 days”, “for one day (pre-emergence)” for “(post-emergence)”

[9] = tested on: Alopecurus myosuroides (ALOMY); test: Pre-emergence herbicidal activity; settings: pre-emergence application, 1000 g/Ha, evaluated after 13 days, scale 0-5
Experimental: as §3
as §2, with “After” for “After 8 days”, “for one day (pre-emergence)” for “(post-emergence)”

[10] = tested on: Triticum aestivium (TRZAW); test: Pre-emergence herbicidal activity; settings: pre-emergence application, 1000 g/Ha, evaluated after 13 days, scale 0-5
Experimental: as §3
as §2, with “After” for “After 8 days”, “for one day (pre-emergence)” for “(post-emergence)”

Oryza sativa (ORYSA) [11] = test: Pre-emergence herbicidal activity; settings: pre-emergence application, 1000 g/Ha, evaluated after 13 days, scale 0-5
Experimental: as §3
as §2, with “After” for “After 8 days”, “for one day (pre-emergence)” for “(post-emergence)”

Avena fatua (AVEFA) [12] = test: Pre-emergence herbicidal activity; settings: pre-emergence application, 1000 g/Ha, evaluated after 13 days, scale 0-5
Experimental: as §3
as §2, with “After” for “After 8 days”, “for one day (pre-emergence)” for “(post-emergence)”

SMILES | Control of weed species, LOLPE (damage score) (Lolium perenne (LOLPE) [1]) | Control of weed species, ECHCG (damage score) [2] | Control of weed species, ALOMY (damage score) [3] | Control of weed species, TRZAW (damage score) [4] | Control of weed species, ORYSA (damage score) (Oryza sativa (ORYSA) [5]) | Control of weed species, AVEFA (damage score) (Avena fatua (AVEFA) [6]) | Control of weed species, LOLPE (damage score) (Lolium perenne (LOLPE) [7]) | Control of weed species, ECHCG (damage score) [8] | Control of weed species, ALOMY (damage score) [9] | Control of weed species, TRZAW (damage score) [10] | Control of weed species, ORYSA (damage score) (Oryza sativa (ORYSA) [11]) | Control of weed species, AVEFA (damage score) (Avena fatua (AVEFA) [12])
CSc1cncc(-c2nc(C)c(N(C)C(=O)OC(C)(C)C)s2)c1 [Compound A12] | 3 | 4 | 0 | 2 | 1 | 2 | 1 | 3 | 0 | 0 | 0 | 3
Cc1nc(-c2cncc(N(C)C)c2)sc1N(C)C(=O)OC(C)(C)C [Compound A13] | 0 | 2 | 1 | 2 | 1 | 0 | 0 | 1 | 0 | 0 | 1 | 0
Cc1nc(-c2cncc(OCc3ccccc3)c2)sc1N(C)C(=O)OC(C)(C)C [Compound A14] | 0 | 1 | 0 | 0 | 0 | 0 | 1 | 0 | 0 | 1 | 0 | 0
Cc1nc(-c2cncc(O)c2)sc1N(C)C(=O)OC(C)(C)C [Compound A15] | 1 | 1 | 0 | 1 | 0 | 2 | 0 | 0 | 0 | 0 | 0 | 0
Cc1nc(-c2cncc(OC(F)F)c2)sc1N(C)C(=O)OC(C)(C)C [Compound A16, tert-butyl N-[2-[5-(difluoromethoxy)-3-pyridyl]-4-methyl-thiazol-5-yl]-N-methyl-carbamate] | 4 | 5 | 3 | 4 | 0 | 5 | 4 | 4 | 0 | 3 | 1 | 3
CCN(C(=O)OC(C)(C)C)c1sc(-c2cccnc2)nc1C [Compound A17] | 2 | 1 | 1 | 1 | 2 | 4 | 0 | 0 | 0 | 0 | 0 | 0
COC(=O)N(C)c1sc(-c2cccnc2)nc1C [Compound A18] | 2 | 5 | 1 | 1 | 0 | 3 | 2 | 5 | 1 | 1 | 0 | 2
CCOC(=O)N(C)c1sc(-c2cccnc2)nc1C [Compound A19, ethyl N-methyl-N-[4-methyl-2-(3-pyridyl)thiazol-5-yl]carbamate] | 2 | 5 | 1 | 1 | 0 | 3 | 1 | 5 | 1 | 0 | 0 | 1
Cc1nc(-c2cccnc2)sc1N(C)C(=O)OC(C)C [Compound A20] | 3 | 5 | 1 | 1 | 0 | 3 | 2 | 5 | 0 | 0 | 0 | 2
Cc1nc(-c2cccnc2)sc1N(C)C(=O)NC(C)(C)C [Compound A21, 3-tert-butyl-1-methyl-1-[4-methyl-2-(3-pyridyl)thiazol-5-yl]urea] | 3 | 5 | 2 | 1 | 0 | 4 | 1 | 5 | 0 | 0 | 0 | 2
Cc1nc(-c2cccnc2)sc1N(C)C(=O)SC(C)(C)C [Compound A22, S-tert-butyl N-methyl-N-[4-methyl-2-(3-pyridyl)thiazol-5-yl]carbamothioate] | 2 | 2 | 0 | 0 | 0 | 2 | 0 | 0 | 0 | 0 | 0 | 0
Cc1nc(-c2cccnc2)sc1N(C)C(=S)SC(C)(C)C [Compound A23, tert-butyl N-methyl-N-[4-methyl-2-(3-pyridyl)thiazol-5-yl]carbamodithioate] | 0 | 1 | 0 | 0 | 0 | 1 | 0 | 0 | 0 | 0 | 0 | 0

From patent US11470846B2, “Herbicidal pyridino-/pyrimidino-thiazoles” (SYNGENTA PARTICIPATIONS AG, priority 2014, dated 2022)
